Reference: paper PMC10376326, “Novel Acylselenourea Derivatives: Dual Molecules with Anticancer and Radical Scavenging Activity” (Antioxidants, 2023)

What was measured:
[1] = system: HTB-54 (lung) cancer cell line; parameters: method as in PMID 22397496; conditions: cited from earlier work
[2] = system: DU-145 (prostate) cancer cell line; assay: MTT cell viability assay, DU-145; type: cell-based, human; conditions: for activity at 10 µM / activity at 50 µM: Homo sapiens, DU-145, 48 h; for activity at 10 µM: read-out: Cell growth %, DU-145, 10 µM, 48 h, MTT; for activity at 50 µM: read-out: Cell growth %, DU-145, 50 µM, 48 h, MTT
Procedure, shortened: (§1)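 MDA-MB-231, HTB-54 and DU-145 grown in RPMI 1640, HT-29 in McCoy's 5A (10% FBS). Output is % cell growth; IC50 determined; ≥3 experiments in quadruplicate.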

[3] = system: non-malignant BEAS-2B lung cell line; parameters: method as in doi:10.30918/IRJMMS.72.19.022; conditions: cited from earlier work
[4] = system: MDA-MB-231 (breast) cancer cell line; assay: MTT cell viability assay, MDA-MB-231; type: cell-based, human; conditions: for activity at 10 µM / activity at 50 µM: Homo sapiens, MDA-MB-231, 48 h; for activity at 10 µM: read-out: Cell growth %, MDA-MB-231, 10 µM, 48 h, MTT; for activity at 50 µM: read-out: Cell growth %, MDA-MB-231, 50 µM, 48 h, MTT
Procedure, shortened: as §1

[5] = system: HTB-54 (lung) cancer cell line; assay: MTT cell viability assay, HTB-54; type: cell-based, human; conditions: for activity at 10 µM / activity at 50 µM: Homo sapiens, HTB-54, 48 h; for activity at 10 µM: read-out: Cell growth %, HTB-54, 10 µM, 48 h, MTT; for activity at 50 µM: read-out: Cell growth %, HTB-54, 50 µM, 48 h, MTT
[6] = system: HT-29 (colon) cancer cell line; assay: MTT cell viability assay, HT-29; type: cell-based; conditions: Homo sapiens, HT-29, 48 h, read-out: Cell growth %; for activity at 10 µM: HT-29, 10 µM; for activity at 50 µM: HT-29, 50 µM
Procedure, shortened: as §1

[7] = system: MDA-MB-231, HT-29, HTB-54 and DU-145 cancer cell lines; assay: MTT cell viability assay, statements over the panel of cancer cell lines; type: cell-based, human; conditions: 10 µM, over the four cancer cell lines
Experimental: Cell lines were purchased from the American Type Culture Collection (ATCC). Cell lines MDA-MB-231, HTB-54, DU-145, and BEAS-2B were cultured in RPMI 1640 medium (Gibco, Thermo Fisher Scientific, Gaithersburg, MD, USA) supplemented with 10% fetal bovine serum (FBS; Gibco), 100 units/mL penicillin, and […] streptomycin (Gibco). HT-29 cell line was grown in McCoy’s 5A (Gibco), 10% FBS, 100 units/mL penicillin, and 100 μg/mL streptomycin. Cells were maintained at 37 °C and 5% CO2. The culture medium was changed every three days.
The cell viability of each compound was measured by MTT colorimetric assay. Each compound was dissolved in DMSO at a concentration of 0.01 M. Each compound was tested at two different concentrations (10 and 50 µM) in MDA-MB-231 (breast), HTB-54 (lung), DU-145 (prostate), and HT-29 (colon) human cancer cell lines. Serial dilutions were prepared with supplemented culture medium. […] IC50 and selectivity indexes (SI) were determined.
Briefly, 1 × 10^4 tumor cells per well were grown in 96-well plates for 24 h. Then, these cells were incubated for 48 h with either DMSO (control) or a different concentration of each of the tested compounds. The cell viability was determined by adding 20 μL of MTT two hours and a half before the termination point. After this time, the culture medium was removed. The resulting formazan crystals were dissolved in 50 μL of DMSO, and the absorbance was measured at 570 nm. Results are expressed as % cell growth. The data were obtained from at least three independent experiments performed in quadruplicate.

[8] = DPPH radical scavenging assay; type: biochemical
Procedure, shortened: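 Acylselenoureas at 0.003 and 0.03 mg/mL (final dilutions from DMSO stock, via methanol) mixed with DPPH• prepared at 0.04 mg/mL in methanol. Absorbance decrease at 517 nm followed 0–120 min; % scavenging calculated relative to negative control, triplicates.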

| Compound | melting point [°C] | activity at 10 µM [2] [%] | activity at 50 µM [2] [%] | activity at 10 µM [4] [%] | activity at 50 µM [4] [%] | activity at 10 µM [5] [%] | activity at 50 µM [5] [%] | activity at 50 µM [6] [%] | inhibition ([8]; 0.003 mg/mL, 0 min) [%] | inhibition ([8]; 0.003 mg/mL, 5 min) [%] | inhibition ([8]; 0.003 mg/mL, 15 min) [%] | inhibition ([8]; 0.003 mg/mL, 30 min) [%] | inhibition ([8]; 0.003 mg/mL, 60 min) [%] | inhibition ([8]; 0.003 mg/mL, 90 min) [%] | inhibition ([8]; 0.003 mg/mL, 120 min) [%] | inhibition ([8]; 0.03 mg/mL, 0 min) [%] | inhibition ([8]; 0.03 mg/mL, 5 min) [%] | inhibition ([8]; 0.03 mg/mL, 15 min) [%] | inhibition ([8]; 0.03 mg/mL, 30 min) [%] | inhibition ([8]; 0.03 mg/mL, 60 min) [%] | other results |
| --- | --- | --- | --- | --- | --- | --- | --- | --- | --- | --- | --- | --- | --- | --- | --- | --- | --- | --- | --- | --- | --- |
| N.N.[Cl][Pt][Cl] [Cisplatin, reference compound] |  |  |  |  |  |  |  |  |  |  |  |  |  |  |  |  |  |  |  |  | IC50 [1]: 13.7 µM; IC50 ([2]; Prostate, MTT, 48 h, read-out: IC50 DU-145): 6.2 ± 0.1 µM; IC50 [3]: 8.63 µM; IC50 ([4]; Breast, MTT, 48 h, read-out: IC50 MDA-MB-231): 5.5 ± 0.5 µM; SI ([5]; IC50 (BEAS-2B)/IC50 (HTB-54)): 0.63 |
| C=CCNC(=[Se])NC(=O)/C=C/c1ccco1 [Compound 3.II, (E)-N-(allylcarbamoselenoyl)-3-(furan-2-yl)acrylamide] | 104 to 105 | 93.6 ± 14.7 | 10.4 ± 4.1 | 79.6 ± 7.7 | 14.1 ± 5.8 | 73.1 ± 3 | 35.4 ± 8.9 | 33.2 ± 6.1 | 0 | 0 | 0 | 0.5 ± 2.9 | 1.7 ± 2.9 | 2.5 ± 2.9 | 3.3 ± 2.9 | 0.7 ± 2.7 | 5.2 ± 1.8 | 9 ± 1.6 | 14.3 ± 1.1 | 23.7 ± 0.8 | activity at 10 µM [6]: 63.3 ± 15%; cell growth % [7]: 54.8–95.0%; inhibition ([8]; 0.03 mg/mL, 90 min): 31.7 ± 0.1%; inhibition ([8]; 0.03 mg/mL, 120 min): 39.6 ± 0.1% |
| C#CCNC(=[Se])NC(=O)/C=C/c1ccco1 [Compound 3.III, (E)-3-(furan-2-yl)-N-(prop-2-in-1-ylcarbamoselenoyl)acrylamide] | 118 to 119 | 86.5 ± 9.3 | 24.7 ± 4.9 | 66.8 ± 7.2 | 20.1 ± 8 | 74.2 ± 4 | 35.3 ± 5.7 | 51.4 ± 6 | 0.9 ± 1.9 | 1.2 ± 1.8 | 1.9 ± 1.7 | 2.7 ± 1.7 | 4.1 ± 1.7 | 5.3 ± 1.7 | 6.2 ± 1.6 | 2.6 ± 1.3 | 6.3 ± 1.1 | 10.9 ± 0.9 | 17.5 ± 0.4 | 28.4 ± 0.4 | inhibition ([8]; 0.03 mg/mL, 90 min): 37.1 ± 0.3%; inhibition ([8]; 0.03 mg/mL, 120 min): 45.9 ± 0.6% |
| C=CCNC(=[Se])NC(=O)/C=C/c1cccs1 [Compound 4.II, (E)-N-(allylcarbamoselenoyl)-3-(thiophen-2-yl)acrylamide] | 104 to 105 | 67.2 ± 7.1 | 13.8 ± 1.2 | 81.1 ± 6.7 | 17.6 ± 6.6 | 79.2 ± 9.2 | 44.2 ± 6.2 | 32.9 ± 5 | 0 | 0 | 0 | 0.5 ± 2.5 | 1.7 ± 2.4 | 2.5 ± 2.4 | 3.1 ± 2.3 | 0.9 ± 2.8 | 6.1 ± 1.7 | 9.9 ± 1.5 | 15.5 ± 1.4 | 25.6 ± 1.3 | activity at 10 µM [6]: 100 ± 7.1%; inhibition ([8]; 0.03 mg/mL, 90 min): 35 ± 0.6%; inhibition ([8]; 0.03 mg/mL, 120 min): 44.3 ± 0.6% |
| CCCNC(=[Se])NC(=O)/C=C/c1ccccc1 [Compound 6.I, N-(propylcarbamoselenoyl)cinnamamide] | 125 to 126 | 19.5 ± 2 | 12.6 ± 1 | 88.4 ± 16.3 | 23.5 ± 12.9 | 84.6 ± 5.9 | 36.2 ± 5.7 | 25.1 ± 5 | 1.5 ± 0.5 | 2 ± 0.8 | 2.5 ± 0.8 | 3.1 ± 0.6 | 4.4 ± 0.6 | 5.6 ± 0.7 | 6.6 ± 0.8 | 2.3 ± 1 | 10.1 ± 1.1 | 15.4 ± 1.3 | 21.8 ± 1.1 | 35.1 ± 1.2 | activity at 10 µM [6]: 60.4 ± 9.7%; inhibition ([8]; 0.03 mg/mL, 90 min): 50.2 ± 0.8%; inhibition ([8]; 0.03 mg/mL, 120 min): 66.4 ± 0.2% |
| C=CCNC(=[Se])NC(=O)/C=C/c1ccc2c(c1)OCO2 [Compound 9.II, (E)-N-(allylcarbamoselenoyl)-3-(benzo[d][1,3]dioxol-5-yl)acrylamide] | 187 to 188 | 110 ± 9 | 69.6 ± 6.1 | 83.8 ± 7.9 | 71.3 ± 5.3 | 82.8 ± 2.8 | 60 ± 4.5 | 103 ± 7.1 | 0.1 ± 2.9 | 0.3 ± 2.7 | 0.8 ± 2.5 | 1.5 ± 2.4 | 2.3 ± 2.3 | 3 ± 2.3 | 3.5 ± 2.3 | 1.9 ± 1.9 | 6.1 ± 1.7 | 10.1 ± 1.2 | 14.7 ± 1.1 | 22.3 ± 1.2 | cell growth % ([5]; HTB-54, 10 µM, 48 h, MTT): 82.8%; activity at 10 µM [6]: 113 ± 7.8%; inhibition ([8]; 0.03 mg/mL, 90 min): 29 ± 1.2%; inhibition ([8]; 0.03 mg/mL, 120 min): 35.2 ± 1.3% |
